Row | melting point | Structure (SMILES)
1 | 124 to 125 °C | CC(=O)Nc1cc(F)ccc1F
2 | 99 to 100 °C | CC1=C(C)C(N)(Cc2ccccc2)C(C)C2=C1OCC2c1ccc(C)cc1 (centres undefined)
3 | 99 to 100 °C | CCn1c(CO)nc(C(C)C)c1Sc1cccc(Cl)c1
4 | 143 °C | COc1ccc(S(=O)(=O)C2(C(=O)NO)CCN(CCCc3ccccc3)CC2)cc1
5 | 158 to 161 °C | CC(=O)Nc1cc2c(s1)CCCN(CCCCN1CCN(c3ncccn3)CC1)C2=O
6 | 194 to 197 °C | N#Cc1ccccc1Cn1ccc(OCc2ccc(F)cc2F)c(Br)c1=O
7 | 250 to 252 °C | CC(C)CNc1cc(C(=O)O)cc(S(N)(=O)=O)c1Sc1ccc(N)cc1
8 | 151 to 153 °C | COC(=O)C1CN(C(=O)COc2ccccc2)c2ccccc2CN1S(=O)(=O)c1ccc(OC)cc1 (centres undefined)
9 | 147 to 152 °C | CC(=O)OC1CC(C)(C)N(OC(=NC2CCCCC2)N(C(=O)c2ccccc2)C2CCCCC2)C(C)(C)C1
10 | 165 to 167 °C | Cc1c(NC(=O)C(CSC(=O)OCC(C)C)Cc2ccccc2)cccc1C(=O)O (centres undefined)
11 | 131 °C | CN(C)C(=O)NC1(Cc2ccccc2)CCN(Cc2ccccc2)CC1
12 | 97 °C | CCCCCCCc1cnc(-c2ccc(C(=O)Oc3ccc(-c4ncc(CCCCC)cn4)cc3)cc2)nc1
13 | 171 to 173 °C | O=c1c(-c2cccc(C(F)(F)F)c2)c[nH]n1-c1ccc(F)cc1
14 | 68 to 71 °C | CC(=O)OCC1OC(n2cnc3c(NCC(c4ccccc4)c4ccccc4)nc(Cl)nc32)C(OC(C)=O)C1OC(C)=O (centres undefined)
15 | 124 °C | O=C(Cc1cccc2ccccc12)Nc1cc([C@H]2C[C@@H](NC(=O)c3cccc([N+](=O)[O-])c3)C2)[nH]n1
16 | 213 to 215 °C | COC(=O)CCC(=O)N1CCc2cc(S(=O)(=O)N3CCN(c4ccc(F)cc4)CC3)ccc21
17 | 150 °C | COC(=O)C1CC(C#N)(c2ccc(OC)c3oc(C(C)C)nc23)CCC1=O (centres undefined)
18 | 131 to 133 °C | CSc1ccc(C(C#N)=NO)cc1SC
19 | 150 to 152 °C | Cn1ncc(C#N)c1-c1ccc([N+](=O)[O-])o1
20 | 139 to 141 °C | COC(=NC(=O)c1ccccc1)NC(=O)c1ccccc1
21 | 139 to 141 °C | COC(=O)NCC1Cc2c(Cl)cc3c(c2O1)CCC3 (centres undefined)
22 | 220 to 225 °C | Cc1c(C(=O)O)c(=O)cc(-c2ccccc2)n1C
23 | 145 to 147 °C | Cc1ncc(C(=O)Nc2ccc(-n3nc(C(F)(F)F)cc3C3CC3)cc2)c(C)n1
24 | 111 to 113 °C | CCCCCCCCOC(=O)c1cc(=O)c2c3c(ccc2o1)-c1ccc(Cl)cc1C(C)(C)O3

Row | melting point | Structure (SMILES)
25 | 186 to 188 °C | CN(C)C=NS(=O)(=O)c1cc2cnc(C=O)cc2o1
26 | 167 to 169 °C | CC(C)=NNC(=O)c1ccc(-c2ccc(Cl)cc2)o1
27 | 100 to 102 °C | CNC(=O)C(=NOC)c1ccccc1CO
28 | 196 °C | Clc1ccc(-c2nnc(NCCN3CCCCC3)c(Cc3ccccc3)n2)cc1
29 | 138 to 142 °C | C[C@H](CS)C(=O)N1C(C(=O)O)CCC1c1ccccc1 (some centres undefined)
30 | 235 to 237 °C | CCCSC1(SCCC)CCC2C3CCC4=CC(=O)C=CC4(C)C3(F)C(O)CC21C (centres undefined)
31 | 244 to 246 °C | O=c1cc(NCCN2CCN(c3cccc4c3OCCO4)CC2)cn[nH]1
32 | 184 to 186 °C | COc1ccc(C(O)(C(F)(F)F)C(F)(F)F)cc1C=CC(=O)O
33 | 250 to 252 °C | CCOc1ccc(Nc2ncc(C(=O)O)c(=O)[nH]2)cc1
34 | 142 to 143 °C | COc1ccc(C2SC(=O)NC2C(=O)NCCO[N+](=O)[O-])cc1 (centres undefined)
35 | 297 °C | Nc1nc(OCC2CCCCC2)c2c(n1)=NC(=O)N=2
36 | 153 to 155 °C | CC(COc1ccccc1)=C1SC(=O)NC1=O
37 | 57 to 62 °C | c1ccc(OCCSCc2nnc(-c3ccc(OCCCCN4CCCCC4)cc3)o2)cc1
38 | 224 to 226 °C | OCc1nnc2ccc(-c3cccc(C(F)(F)F)c3)nn12
39 | 114 to 116 °C | COc1cc(C(C)=O)ccc1OCCCCN1CCN(c2nsc3ccccc23)CC1
40 | 65 °C | CC(C)(O)C(C(=O)O)c1ccc(Cl)cc1 (centres undefined)
41 | 94 °C | O=C(NO)C1(S(=O)(=O)c2ccc(OCC#CCN3CCOCC3)cc2)CCN(Cc2ccc(Br)cc2)CC1
42 | 102 to 104 °C | COc1cc(F)ccc1OCCN1C(=O)c2ccccc2C1=O
43 | 188 to 190 °C | CC1(c2ccccc2)Cc2cc(OCCO)c(Cl)c(Cl)c2C1=O (centres undefined)
44 | 88 to 90 °C | COC(=O)c1ccc(S(C)(=O)=O)nc1OC
45 | > 250 °C | Fc1ccc(Nc2ncnc3cc(-c4ccco4)ccc23)cc1Cl
46 | 199 to 200 °C | c1ccc(-c2nnc(NCC3CC3)cc2-c2ccncc2)cc1
47 | 190 °C | CC(=O)Nc1ccccc1C=C1c2ccccc2CCc2ccccc21
48 | 87 to 90 °C | CCc1cccc(CC)c1N1C(=S)N(C)C(O)C1O (centres undefined)

Row | melting point | Structure (SMILES)
49 | 201 to 202 °C | COC(=O)c1ccc(NN=CC(F)(F)F)cc1S(=O)(=O)NC(=O)Nc1nc(OC)cc(OC)n1
50 | 126 to 127 °C | CCOC(=O)C=CC=Cc1ccc(-n2ccnc2)cc1
51 | 103 °C | C=CC(CC(O)C(CC1CCCCC1)NC(=O)C(Cc1ncc[nH]1)NC(=O)C(Cc1ccccc1)NC(=O)C(N)COC(C)(C)C)C(C)C (centres undefined)
52 | 228 to 230 °C | CC(C)(C)c1ccc(Nc2cccc3c2C(=O)N(C2CCC(=O)NC2=O)C3=O)cc1 (centres undefined)
53 | 232 to 234 °C | COc1ccc2nc3c(c(Cl)c2c1)C(=O)c1ccccc1-3
54 | 54 °C | COc1cccc(Cc2nc3c(cnn3C(CCCc3ccccc3)C(C)O)c(=O)[nH]2)c1 (centres undefined)
55 | 225 to 227 °C | O=C1OCc2c1cc1ccc3c(c1c2-c1ccc(Cl)cc1)OCO3
56 | 189 °C | Oc1ccc2c(c1-c1ccccc1)CCCC=C2c1ccc(OCCCCCSc2ccc(C(F)(F)F)cc2)cc1
57 | 172 °C | CCOC(=O)c1cn(CC)c2nc(N3CCN(CCO)CC3)ncc2c1=O
58 | 238 to 240 °C | O=[N+]([O-])c1ccc(-c2cc(O)ccc2-c2ncnc(-c3ccccc3)n2)cc1
59 | 244 to 245 °C | COc1cc2[nH]c3c(c2cc1OC)CC(=CC1CCN(Cc2ccccc2)CC1)C3=O
60 | 241 to 242 °C | CC(=O)Nc1cccc(-c2nc(=O)c3ccccc3s2)c1
61 | 84 to 87 °C | CCCc1[nH]c(C(=O)OCC)c(C)c1CCC
62 | 98.5 to 100 °C | CCC(CO)c1ccc(N=C2SCCS2)cc1 (centres undefined)
63 | 112 to 118 °C | CC(C)(C)OC(=O)NCCNC(=O)c1cscn1
64 | 212 to 214 °C | O=S(=O)(c1ccccc1)n1c2ccc(Br)cc2c2c(Cl)ccnc21
65 | 198 to 200 °C | C(#Cc1ccccc1)C1=CCN(Cc2c[nH]c3ncccc23)CC1
66 | 115 to 135 °C | CC(C)(C)OC(=O)N(CC=CCl)c1cc(OCc2ccccc2)c2ncccc2c1I
67 | 212 °C | O=C(Nc1nonc1-c1ccccc1)NC1CCC(C(F)(F)F)CC1 (centres undefined)
68 | 206 to 207 °C | COCCCn1c(C=O)c(Br)c2c3c(c(-c4ccccc4Cl)cc21)C(=O)NC3=O
69 | 276 to 278 °C | CC(=O)Nc1cccc(C#CC=Cc2cccc(NC(C)=O)c2)c1
70 | 150 to 151 °C | Nc1nc(N)c2cc(Cc3ccc(Cl)c(Cl)c3)ccc2n1
71 | 43 to 45 °C | O=c1cc(Cl)cc(Cl)o1
72 | 145 to 180 °C | O=C(NC[C@H]1CN(c2ccc3c(c2)CCCc2cnoc2-3)C(=O)O1)C(F)F

Row | melting point | Structure (SMILES)
73 | 218 to 223 °C | CSc1nc(-c2ccccn2)n(-c2ccc(C)c(C)c2)c(=O)c1C#N
74 | 133 to 135 °C | Fc1cccc(-c2ccc(Cl)nn2)c1
75 | 101 °C | Cc1cc(-n2ccnc2)c2cccc(OCc3c(Cl)ccc(S(=O)(=O)N4CCCC4C(=O)NCC4CCN(C(=O)CC(=O)OC(C)(C)C)CC4)c3Cl)c2n1 (centres undefined)
76 | 92 to 93 °C | CCCc1nc(C(C)(C)O)c(C(=O)OCC)n1Cc1ccc(-c2ccccc2C#N)cc1
77 | 188 to 191 °C | CCc1nc2c(N)nc3ccccc3c2n1CCOCCNC(=O)c1ccccc1
78 | 88 °C | Cc1ccccc1COCn1cc(Cl)cnc1=O
79 | 241 to 245 °C | CC(=NNc1ccc(C2=NNC(=O)CC2C)cc1)c1cnsn1 (centres undefined)
80 | 89 to 90 °C | CCCC(OCCc1ccc(-c2ccc(Cl)cc2)cc1)C(=O)O (centres undefined)
81 | 180 °C | CCCCN(CCCC)C(=O)/C=C/c1ccc(Cn2c(-c3ccc(F)cc3)c(C)c3cc(O)ccc32)cc1
82 | 243 to 245 °C | c1ncn(Cc2ccc3c(c2)-c2[nH]nc(-c4ccsc4)c2C3)n1
83 | 68 °C | CC1=NC(NC(=O)OCc2ccccc2)C(=O)N(CC(=O)C(C)(C)C)c2ccccc21 (centres undefined)
84 | 199 to 203 °C | O=C1c2ccccc2O[C@@H](c2ccccc2)[C@@H]1n1ccnc1 (relative stereo)
85 | 177 to 179 °C | CCCCc1nc2c(N)nc3ccc(OCc4ccccc4)cc3c2n1CCCCNC(=O)N1CCOCC1
86 | 132 to 134 °C | O=C(c1ccc(-c2ccccc2)s1)c1ccc(Br)cc1Cl
87 | 110 °C | C[C@H](Oc1c(I)c(C(=O)NC(CO)CO)c(I)c(C(=O)NC(CO)CO)c1I)C(N)=O
88 | 223 to 227 °C | Cc1cc2cc(CN3CCC(CCC(N)=O)CC3)cnc2cc1NC(=O)c1ccc(-c2ccc(F)cc2)cc1
89 | 221 °C | CCCCn1c(=O)c2[nH]c(N3CCCCC3)nc2n(CCCC)c1=O
90 | 90 to 91 °C | CCCOc1cc(CO)n(Cc2ccc3ccccc3n2)n1
91 | 176 to 179 °C | COc1cccc2c1CN(Cc1c[nH]c3ccccc13)C2
92 | 65 to 69 °C | CC(C)(C)c1cc(Br)c(O)c(Br)c1
93 | 182 °C | CN(C)C(=O)COc1ccc2ccc(N)nc2n1

Row | Structure (SMILES) | melting point
94 | COc1cc2c(cc1OC)C(c1cccc(Cl)c1)=NNC(C)C2 (centres undefined) | 116 to 120 °C
95 | CC(/C=C/c1ccsc1-c1cc2c(cc1C)C(C)(C)CCC2(C)C)=C\C(=O)O | 194 to 195 °C
96 | FC(F)(F)c1ccc2sc(C3=CCN(Cc4ccccc4)CC3)nc2c1 | 124 to 125 °C
97 | O=C(c1c(Cl)cccc1Cl)P(=O)(C(=O)c1c(Cl)cccc1Cl)c1ccccc1 | 194 °C
98 | Cc1nc(CO)c2n1-c1ccc(Cl)cc1C(c1ccccc1F)=NC2 | 233 to 235 °C
99 | CCC12CCC3C4CCC(=O)C=C4C(Cl)CC3C1C(OC(C)=O)CC2=O (centres undefined) | 115 °C
